Laboratory results as given in patent US20260199484A1, “PROTAC DEGRADERS OF MLLT1 AND/OR MLLT3” (DARK BLUE THERAPEUTICS LTD, priority 2024, published 2026).

Molecular target: T1, MLLT1 (Homo sapiens, UniProt Q03111)
T1 sequence (Q03111 1-559): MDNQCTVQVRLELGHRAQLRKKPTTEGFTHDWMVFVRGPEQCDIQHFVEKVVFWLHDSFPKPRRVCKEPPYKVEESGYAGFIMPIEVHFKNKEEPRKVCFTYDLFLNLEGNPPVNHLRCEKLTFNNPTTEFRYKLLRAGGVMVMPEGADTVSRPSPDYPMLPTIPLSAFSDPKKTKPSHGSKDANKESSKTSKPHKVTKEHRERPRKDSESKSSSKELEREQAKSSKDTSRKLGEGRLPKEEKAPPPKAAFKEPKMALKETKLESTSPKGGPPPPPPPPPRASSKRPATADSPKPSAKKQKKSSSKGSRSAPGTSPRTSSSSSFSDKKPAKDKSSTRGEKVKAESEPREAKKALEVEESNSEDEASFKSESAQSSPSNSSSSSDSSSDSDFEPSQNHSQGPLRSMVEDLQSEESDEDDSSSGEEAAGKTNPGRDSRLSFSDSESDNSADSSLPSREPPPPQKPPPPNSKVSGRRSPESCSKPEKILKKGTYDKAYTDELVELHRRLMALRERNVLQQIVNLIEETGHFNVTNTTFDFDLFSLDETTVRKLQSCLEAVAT
Assay: MLLT1 degradation assay in MV4-11 cells (JESS, 24 h)
Assay type: cell-based
Parameters: endogenous in cells; host or cells: MV4-11 (ATCC CRL-9591)
Conditions: vs DMSO control
Experimental: MLLT1 degradation efficacy of compounds was tested in an automated chemiluminescent detection system (JESS, Cat #004-650). MV4-11 (#CRL-9591, ATCC) cells were seeded at a density of 1.2 million cells/well in a non-treated 6-well cell culture plate in 2.4 mL of complete medium (IMDM+10% FBS+1× Penicillin-Streptomycin). 10 mM DMSO stocks were prepared, and cells were treated with three concentrations of test compounds viz. 1000, 100 and 10 nM at a final DMSO concentration of 0.1% and incubated for 24 h at 37° C., 5% CO2. Post incubation, cells were centrifuged, washed with HBSS and lysed in 70 μL of RIPA buffer supplemented with Protease inhibitors (sc-24948; Santa Cruz). Subsequently, protein estimation was done using BCA protein assay kit (23225; Pierce). 4 ug protein lysate (4 uL of 1 ug/uL lysate) was loaded into each well of the JESS cartridge (SM-W001; Bio-techne) and the JESS run was performed using 1:900 dilution of anti-human MLLT1 antibody (14893; Cell signaling technology) and 1:1200 dilution of anti-human GAPDH antibody (2118; Cell signaling technology) with anti-rabbit secondary detection module (DM-001; Bio-Techne). Post run, data were analysed using “Compass for SW” software for chemiluminescent detection. The peak area for each band was used for the calculation of MLLT1 degradation with respect to DMSO control. Data is shown as “MLLT1% degradation”. • Category A: A≥75% degradation • Category B: 50%≤B<75% degradation • Category C: 25%≤C<50% degradation • Category D: D<25% degradation

Cc1c(OCCCCCCn2nc(C)c3ccc(C(=O)Nc4cc5[nH]c([C@H]6CCCN6C)cc5cn4)cc32)cccc1N1CCC(=O)NC1=O [Example 10, 1-{6-[3-(2,4-dioxo-1,3-diazinan-1-yl)-2-methylphenoxy]hexyl}-3-methyl-N-{2-[(2R)-1-methylpyrrolidin-2-yl]-1H-pyrrolo[3,2-c]pyridin-6-yl}indazole-6-carboxamide]
MLLT1% Degradation @ 0.01 μM: C (Category C: 25%≤C<50% degradation)
MLLT1% Degradation @ 0.1 μM: C (Category C: 25%≤C<50% degradation)
MLLT1% Degradation @ 1 μM: C (Category C: 25%≤C<50% degradation)

Cc1nn(CCCCCCCC#Cc2cccc(C(=O)N[C@H]3CCC(=O)NC3=O)c2F)c2cc(C(=O)Nc3cc4[nH]c([C@H]5CCCN5C)cc4cn3)ccc12 [Example 51, 1-(9-(3-(((S)-2,6-dioxopiperidin-3-yl)carbamoyl)-2-fluorophenyl)non-8-yn-1-yl)-3-methyl-N-(2-((R)-1-methylpyrrolidin-2-yl)-1H-pyrrolo[3,2-c]pyridin-6-yl)-1H-indazole-6-carboxamide]
MLLT1% Degradation @ 0.01 μM: C (Category C: 25%≤C<50% degradation)
MLLT1% Degradation @ 0.1 μM: B (Category B: 50%≤B<75% degradation)
MLLT1% Degradation @ 1 μM: A (Category A: A≥75% degradation)

Cc1nn(CCCC2CCN(c3ccc(C(=O)NC4CCC(=O)NC4=O)cc3F)CC2)c2cc(C(=O)Nc3cc4[nH]c([C@H]5CCCN5C)cc4cn3)ccc12 (stereo partly drawn) [Example 28, 1-(3-(1-(4-((2,6-dioxopiperidin-3-yl)carbamoyl)-2-fluorophenyl)piperidin-4-yl)propyl)-3-methyl-N-(2-((R)-1-methylpyrrolidin-2-yl)-1H-pyrrolo[3,2-c]pyridin-6-yl)-1H-indazole-6-carboxamide]
MLLT1% Degradation @ 0.1 μM: C (Category C: 25%≤C<50% degradation)
MLLT1% Degradation @ 1 μM: C (Category C: 25%≤C<50% degradation)

CN1CCC[C@@H]1c1cc2cnc(NC(=O)c3ccc4c(c3)c(N3CCC(CN5CCN(c6cc7c(cc6F)C(=O)N(C6CCC(=O)NC6=O)C7=O)CC5)CC3)nn4C)cc2[nH]1 (stereo partly drawn) [Example 6, 3-[4-({4-[2-(2,6-dioxopiperidin-3-yl)-6-fluoro-1,3-dioxoisoindol-5-yl]piperazin-1-yl}methyl)piperidin-1-yl]-1-methyl-N-{2-[(2R)-1-methylpyrrolidin-2-yl]-1H-pyrrolo[3,2-c]pyridin-6-yl}indazole-5-carboxamide]
MLLT1% Degradation @ 0.01 μM: C (Category C: 25%≤C<50% degradation)
MLLT1% Degradation @ 0.1 μM: B (Category B: 50%≤B<75% degradation)
MLLT1% Degradation @ 1 μM: A (Category A: A≥75% degradation)

Cc1nn(CCCCCOCC#Cc2cccc3c2CN(C2CCC(=O)NC2=O)C3=O)c2cc(C(=O)Nc3cc4[nH]c([C@H]5CCCN5C)cc4cn3)ccc12 (stereo partly drawn) [Example 49, 1-(5-((3-(2-(2,6-dioxopiperidin-3-yl)-1-oxoisoindolin-4-yl)prop-2-yn-1-yl)oxy)pentyl)-3-methyl-N-(2-((R)-1-methylpyrrolidin-2-yl)-1H-pyrrolo[3,2-c]pyridin-6-yl)-1H-indazole-6-carboxamide]
MLLT1% Degradation @ 0.01 μM: A (Category A: A≥75% degradation)
MLLT1% Degradation @ 0.1 μM: A (Category A: A≥75% degradation)
MLLT1% Degradation @ 1 μM: A (Category A: A≥75% degradation)

Cc1nn(CCCCCCCC#Cc2cc3c(cc2F)c(N2CCC(=O)NC2=O)nn3C)c2cc(C(=O)Nc3cc4[nH]c([C@H]5CCCN5C)cc4cn3)ccc12 [Example 65, (R)-1-(9-(3-(2,4-dioxotetrahydropyrimidin-1 (2H)-yl)-5-fluoro-1-methyl-1H-indazol-6-yl)non-8-yn-1-yl)-3-methyl-N-(2-(1-methylpyrrolidin-2-yl)-1H-pyrrolo[3,2-c]pyridin-6-yl)-1H-indazole-6-carboxamide]
MLLT1% Degradation @ 0.01 μM: C (Category C: 25%≤C<50% degradation)
MLLT1% Degradation @ 0.1 μM: B (Category B: 50%≤B<75% degradation)
MLLT1% Degradation @ 1 μM: A (Category A: A≥75% degradation)

Cc1c2ccc(C(=O)Nc3cc4[nH]c([C@H]5CCCN5C)cc4cn3)cc2nn1CCCCCCCCNc1cccc2c1C(=O)N(C1CCC(=O)NC1=O)C2=O (stereo partly drawn) [Example 5, 2-(8-((2-(2,6-dioxopiperidin-3-yl)-1,3-dioxoisoindolin-4-yl)amino)octyl)-3-methyl-N-(2-((R)-1-methylpyrrolidin-2-yl)-1H-pyrrolo[3,2-c]pyridin-6-yl)-2H-indazole-6-carboxamide]
MLLT1% Degradation @ 0.01 μM: B (Category B: 50%≤B<75% degradation)
MLLT1% Degradation @ 0.1 μM: B (Category B: 50%≤B<75% degradation)
MLLT1% Degradation @ 1 μM: C (Category C: 25%≤C<50% degradation)

Cc1nn(CC2CCN(c3cccc4c3CN(C3CCC(=O)NC3=O)C4=O)CC2)c2cc(C(=O)Nc3cc4[nH]c([C@H]5CCCN5C)cc4cn3)ccc12 (stereo in doubt) [Example 108, 1-((1-(2-((rel-R)-2,6-dioxopiperidin-3-yl)-1-oxoisoindolin-4-yl)piperidin-4-yl)methyl)-3-methyl-N-(2-((R)-1-methylpyrrolidin-2-yl)-1H-pyrrolo[3,2-c]pyridin-6-yl)-1H-indazole-6-carboxamide]
MLLT1% Degradation @ 0.01 μM: B (Category B: 50%≤B<75% degradation)
MLLT1% Degradation @ 0.1 μM: A (Category A: A≥75% degradation)
MLLT1% Degradation @ 1 μM: A (Category A: A≥75% degradation)

Cc1nn(CCCCCCCC#Cc2ccc(C(=O)N[C@H]3CCC(=O)NC3=O)nc2)c2cc(C(=O)Nc3cc4[nH]c([C@H]5CCCN5C)cc4cn3)ccc12 [Example 41, 1-(9-(6-(((S)-2,6-dioxopiperidin-3-yl)carbamoyl)pyridin-3-yl)non-8-yn-1-yl)-3-methyl-N-(2-((R)-1-methylpyrrolidin-2-yl)-1H-pyrrolo[3,2-c]pyridin-6-yl)-1H-indazole-6-carboxamide]
MLLT1% Degradation @ 0.01 μM: D (Category D: D<25% degradation)
MLLT1% Degradation @ 0.1 μM: C (Category C: 25%≤C<50% degradation)
MLLT1% Degradation @ 1 μM: B (Category B: 50%≤B<75% degradation)

Cc1nn(CCCCCCCC#Cc2ccnc(C(=O)N[C@H]3CCC(=O)NC3=O)c2)c2cc(C(=O)Nc3cc4[nH]c([C@H]5CCCN5C)cc4cn3)ccc12 [Example 43, 1-(9-(2-(((S)-2,6-dioxopiperidin-3-yl)carbamoyl)pyridin-4-yl)non-8-yn-1-yl)-3-methyl-N-(2-((R)-1-methylpyrrolidin-2-yl)-1H-pyrrolo[3,2-c]pyridin-6-yl)-1H-indazole-6-carboxamide]
MLLT1% Degradation @ 0.01 μM: C (Category C: 25%≤C<50% degradation)
MLLT1% Degradation @ 0.1 μM: B (Category B: 50%≤B<75% degradation)
MLLT1% Degradation @ 1 μM: A (Category A: A≥75% degradation)

Cc1nn(CCCCCCCC#Cc2cccc(N3CCC(=O)NC3=O)c2F)c2cc(C(=O)Nc3cc4[nH]c([C@H]5CCCN5C)cc4cn3)ccc12 [Example 63, (R)-1-(9-(3-(2,4-dioxotetrahydropyrimidin-1 (2H)-yl)-2-fluorophenyl)non-8-yn-1-yl)-3-methyl-N-(2-(1-methylpyrrolidin-2-yl)-1H-pyrrolo [3,2-c]pyridin-6-yl)-1H-indazole-6-carboxamide]
MLLT1% Degradation @ 0.01 μM: D (Category D: D<25% degradation)
MLLT1% Degradation @ 0.1 μM: B (Category B: 50%≤B<75% degradation)
MLLT1% Degradation @ 1 μM: A (Category A: A≥75% degradation)

Cc1nn(CCCCCCCC#Cc2cccc3c2CN(C2CCC(=O)NC2=O)C3=O)c2cc(C(=O)Nc3cc4[nH]c([C@H]5CC6(CC6)CN5C)cc4cn3)ccc12 (stereo in doubt) [Example 56, 1-(9-(2-(2,6-dioxopiperidin-3-yl)-1-oxoisoindolin-4-yl)non-8-yn-1-yl)-3-methyl-N-(2-((rel-R)-5-methyl-5-azaspiro[2.4]heptan-6-yl)-1H-pyrrolo[3,2-c]pyridin-6-yl)-1H-indazole-6-carboxamide]
MLLT1% Degradation @ 0.01 μM: A (Category A: A≥75% degradation)
MLLT1% Degradation @ 0.1 μM: A (Category A: A≥75% degradation)
MLLT1% Degradation @ 1 μM: A (Category A: A≥75% degradation)

Cc1c(OCCCCCCCCn2nc(C)c3ccc(C(=O)Nc4cc5[nH]c([C@H]6CCCN6C)cc5cn4)cc32)cccc1N1CCC(=O)NC1=O [Example 9, 1-{8-[3-(2,4-dioxo-1,3-diazinan-1-yl)-2-methylphenoxy]octyl}-3-methyl-N-{2-[(2R)-1-methylpyrrolidin-2-yl]-1H-pyrrolo[3,2-c]pyridin-6-yl}indazole-6-carboxamide]
MLLT1% Degradation @ 0.01 μM: D (Category D: D<25% degradation)
MLLT1% Degradation @ 0.1 μM: C (Category C: 25%≤C<50% degradation)
MLLT1% Degradation @ 1 μM: A (Category A: A≥75% degradation)
